Experimental data from PubChem BioAssay (NCI).
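Grown in 96-well plates, cells were treated for 48 hours with each compound at five concentrations. Insufficient inhibition: endpoint recorded as highest concentration tested. The concentration for full growth arrest is given as TGI.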

Key:
Experiment in all cases: NCI tumour cell line growth inhibition, 48 h
OVCAR-4 ovarian = tested on: OVCAR-4 ovarian
SF-539 CNS = tested on: SF-539 CNS
SK-MEL-2 melanoma = tested on: SK-MEL-2 melanoma
NCI/ADR-RES ovarian = tested on: NCI/ADR-RES ovarian
M14 melanoma = tested on: M14 melanoma
HCT-116 colon = tested on: HCT-116 colon
OVCAR-5 ovarian = tested on: OVCAR-5 ovarian
SK-OV-3 ovarian = tested on: SK-OV-3 ovarian
CAKI-1 renal = tested on: CAKI-1 renal
HL-60(TB) leukemia = tested on: HL-60(TB) leukemia
MDA-MB-435 = tested on: MDA-MB-435
SF-268 CNS = tested on: SF-268 CNS
OVCAR-3 ovarian = tested on: OVCAR-3 ovarian
HCC-2998 colon = tested on: HCC-2998 colon
MDA-N = tested on: MDA-N
HS 578T breast = tested on: HS 578T breast
DU-145 prostate = tested on: DU-145 prostate
SK-MEL-28 melanoma = tested on: SK-MEL-28 melanoma
SN12C renal = tested on: SN12C renal
PC-3 prostate = tested on: PC-3 prostate
MDA-MB-231 breast = tested on: MDA-MB-231 breast
HOP-62 NSCLC = tested on: HOP-62 NSCLC
HT29 colon = tested on: HT29 colon
HOP-92 NSCLC = tested on: HOP-92 NSCLC
RXF 393 renal = tested on: RXF 393 renal
A498 renal = tested on: A498 renal
TK-10 renal = tested on: TK-10 renal
SK-MEL-5 melanoma = tested on: SK-MEL-5 melanoma
SR leukemia = tested on: SR leukemia
786-0 renal = tested on: 786-0 renal
T-47D breast = tested on: T-47D breast
UACC-257 melanoma = tested on: UACC-257 melanoma
A549 NSCLC = tested on: A549 NSCLC
UACC-62 melanoma = tested on: UACC-62 melanoma
IGROV1 ovarian = tested on: IGROV1 ovarian
LOX IMVI melanoma = tested on: LOX IMVI melanoma
U251 CNS = tested on: U251 CNS
MCF7 breast = tested on: MCF7 breast
ACHN renal = tested on: ACHN renal
EKVX NSCLC = tested on: EKVX NSCLC
COLO 205 colon = tested on: COLO 205 colon
SF-295 CNS = tested on: SF-295 CNS
SW-620 colon = tested on: SW-620 colon
KM12 colon = tested on: KM12 colon
NCI-H23 lung = tested on: NCI-H23 lung
SNB-75 CNS = tested on: SNB-75 CNS
BT-549 breast = tested on: BT-549 breast
OVCAR-8 ovarian = tested on: OVCAR-8 ovarian
HCT-15 colon = tested on: HCT-15 colon
NCI-H226 lung = tested on: NCI-H226 lung
SNB-19 CNS = tested on: SNB-19 CNS
MOLT-4 leukemia = tested on: MOLT-4 leukemia
NCI-H460 lung = tested on: NCI-H460 lung
UO-31 renal = tested on: UO-31 renal
K-562 leukemia = tested on: K-562 leukemia
RPMI-8226 leukemia = tested on: RPMI-8226 leukemia
CCRF-CEM leukemia = tested on: CCRF-CEM leukemia

Work on CC(C)OC(=O)c1ccc(NCC2=CC(=O)C=CC2=O)cc1Cl yielded a TGI (OVCAR-4 ovarian) of 32 µM, a TGI (SF-539 CNS) of 37.5 µM and a TGI (SK-MEL-2 melanoma) of over 100 µM. For the same compound, the TGI (NCI/ADR-RES ovarian) was over 100 µM, the TGI (M14 melanoma) was over 100 µM and the TGI (HCT-116 colon) was over 53.2 µM. The TGI (OVCAR-5 ovarian) was 70.1 µM, the TGI (SK-OV-3 ovarian) was over 100 µM and the TGI (CAKI-1 renal) was 6.19 µM. For the same compound, the TGI (HL-60(TB) leukemia) was over 21.8 µM, the TGI (MDA-MB-435) was 35.1 µM and the TGI (SF-268 CNS) was 35.2 µM. For the same compound, the TGI (OVCAR-3 ovarian) was over 45.9 µM, the TGI (HCC-2998 colon) was 32.8 µM and the TGI (MDA-N) was 25.2 µM. The TGI (HS 578T breast) was over 100 µM, the TGI (DU-145 prostate) was 42.3 µM and the TGI (SK-MEL-28 melanoma) was 56.5 µM. The TGI (SN12C renal) was 44.3 µM, the TGI (PC-3 prostate) was over 100 µM and the TGI (MDA-MB-231 breast) was 47.6 µM. It also gave a TGI (HOP-62 NSCLC) of over 100 µM, a TGI (HT29 colon) of over 62.5 µM and a TGI (HOP-92 NSCLC) of 14.4 µM. The TGI (RXF 393 renal) was 47.5 µM, the TGI (A498 renal) was 43.2 µM and the TGI (TK-10 renal) was 30 µM. For the same compound, the TGI (SK-MEL-5 melanoma) was over 57.6 µM, the TGI (SR leukemia) was 8.22 µM and the TGI (786-0 renal) was over 48.3 µM. For the same compound, the TGI (T-47D breast) was 7.85 µM, the TGI (UACC-257 melanoma) was 33.9 µM and the TGI (A549 NSCLC) was over 100 µM. The TGI (UACC-62 melanoma) was 30.1 µM, the TGI (IGROV1 ovarian) was 30.5 µM and the TGI (LOX IMVI melanoma) was 35.6 µM. For the same compound, the TGI (U251 CNS) was 54.9 µM, the TGI (MCF7 breast) was over 60.1 µM and the TGI (ACHN renal) was 16 µM. It also gave a TGI (EKVX NSCLC) of 32.5 µM, a TGI (COLO 205 colon) of 21.3 µM and a TGI (SF-295 CNS) of 41.4 µM. It also gave a TGI (SW-620 colon) of over 53.5 µM, a TGI (KM12 colon) of 33.2 µM and a TGI (NCI-H23 lung) of 33.1 µM. For the same compound, the TGI (SNB-75 CNS) was over 70.3 µM, the TGI (BT-549 breast) was 9.92 µM and the TGI (OVCAR-8 ovarian) was over 51.4 µM. For the same compound, the TGI (HCT-15 colon) was 18.6 µM, the TGI (NCI-H226 lung) was over 62.6 µM and the TGI (SNB-19 CNS) was 44.2 µM. The TGI (MOLT-4 leukemia) was over 30.7 µM, the TGI (NCI-H460 lung) was 41 µM and the TGI (UO-31 renal) was 13.9 µM.

COc1ccc(/C=N\N2CC(=O)N3C4C=CC(CC4)N3C2=O)cc1 (stereo not drawn) showed a TGI (SF-539 CNS) of over 100 µM, a TGI (SK-MEL-2 melanoma) of over 100 µM and a TGI (NCI/ADR-RES ovarian) of over 100 µM. The TGI (M14 melanoma) was over 100 µM, the TGI (HCT-116 colon) was over 100 µM and the TGI (OVCAR-5 ovarian) was over 100 µM. The TGI (SK-OV-3 ovarian) was over 100 µM, the TGI (CAKI-1 renal) was over 100 µM and the TGI (HL-60(TB) leukemia) was over 100 µM. For the same compound, the TGI (MDA-MB-435) was over 100 µM, the TGI (SF-268 CNS) was over 100 µM and the TGI (OVCAR-3 ovarian) was over 100 µM. The TGI (K-562 leukemia) was over 100 µM, the TGI (MDA-N) was over 100 µM and the TGI (HS 578T breast) was over 100 µM. For the same compound, the TGI (DU-145 prostate) was over 100 µM, the TGI (SK-MEL-28 melanoma) was over 100 µM and the TGI (SN12C renal) was over 100 µM. It also gave a TGI (PC-3 prostate) of over 100 µM, a TGI (MDA-MB-231 breast) of over 100 µM and a TGI (HOP-62 NSCLC) of over 100 µM. It also gave a TGI (HT29 colon) of over 100 µM, a TGI (RPMI-8226 leukemia) of over 100 µM and a TGI (HOP-92 NSCLC) of over 100 µM. It also gave a TGI (CCRF-CEM leukemia) of over 100 µM, a TGI (A498 renal) of over 100 µM and a TGI (TK-10 renal) of over 100 µM. The TGI (SK-MEL-5 melanoma) was over 100 µM, the TGI (SR leukemia) was over 100 µM and the TGI (786-0 renal) was over 100 µM. The TGI (T-47D breast) was over 100 µM, the TGI (UACC-257 melanoma) was over 100 µM and the TGI (A549 NSCLC) was over 100 µM. The TGI (UACC-62 melanoma) was over 100 µM, the TGI (IGROV1 ovarian) was over 100 µM and the TGI (LOX IMVI melanoma) was over 100 µM. For the same compound, the TGI (U251 CNS) was over 100 µM, the TGI (MCF7 breast) was over 100 µM and the TGI (ACHN renal) was over 100 µM. It also gave a TGI (EKVX NSCLC) of over 100 µM, a TGI (COLO 205 colon) of over 100 µM and a TGI (SF-295 CNS) of over 100 µM. It also gave a TGI (SW-620 colon) of over 100 µM, a TGI (KM12 colon) of over 100 µM and a TGI (NCI-H23 lung) of over 100 µM. For the same compound, the TGI (SNB-75 CNS) was over 100 µM, the TGI (BT-549 breast) was over 100 µM and the TGI (OVCAR-8 ovarian) was over 100 µM. The TGI (HCT-15 colon) was over 100 µM, the TGI (NCI-H226 lung) was over 100 µM and the TGI (SNB-19 CNS) was over 100 µM. For the same compound, the TGI (MOLT-4 leukemia) was over 100 µM, the TGI (NCI-H460 lung) was over 100 µM and the TGI (UO-31 renal) was over 100 µM.
